In patent US20250302040A1, “FUNGICIDAL COMBINATIONS OF FLUAZINAM AND USES THEREOF” (priority 2022, published 2025):
Values after ≈ are worked out from the molar mass of the structure shown.

Experiments:
Zymoseptoria tritici = assay: Microtiter plate (MTP) fungal growth assay, optical density, Wadley analysis; format: cell-based; settings: single active ingredient, OD 590 nm after 5 days at 19° C.
Venturia inaequalis = assay: Apple scab control on apple leaves (incidence), Colby analysis; settings: 27 days after application
Protocol: Here, efficacy or percent inhibition is determined in %.
Efficacy of the fungicidal compositions is evaluated with reference to a scale of 0 to 100% in comparison with untreated control plots. 0 means no control and 100 means complete control of the target disease.
The experiments were conducted by applying commercially available formulations of Fluazinam and other mixture partners, alone or with their tank-mixed compositions. The compositions were diluted with water.
Each formulation with active ingredient is diluted with water and biological efficacy trials on target fungi are conducted.

Phytophthora infestans = assay: microbe, parasite or virus in culture; format: cell-based
[1] = Fluazinam 350 g/ha, Fluxapyroxad 75 g/ha, mixture 350 + 75 g/ha

Row | Compound | EC50 observed (Zymoseptoria tritici) [µg/mL] | Observed % control (O) (Venturia inaequalis; [1]) [%] | further results
1 | Cc1ccc(C(=O)OCc2ccc(Oc3ccccc3)cc2)c(N)n1 [Aminopyrifen] | 0.2220 (≈ 0.664 µM) |  | 
2 | COc1ccnc(C(=O)N[C@@H](C)C(=O)O[C@@H](C)C(c2ccc(F)cc2)c2ccc(F)cc2)c1OC(C)=O [Florylpicoxamid] | 0.0022 (≈ 0.00429 µM) |  | 
3 | O=[N+]([O-])c1cc(C(F)(F)F)c(Cl)c([N+](=O)[O-])c1Nc1ncc(C(F)(F)F)cc1Cl [Fluazinam] |  | 30.50 | EC50 (Zymoseptoria tritici; Zymoseptoria tritici, 120 h, read-out: EC50 observed): 0.257 µg/mL (≈ 0.552 µM); EC50 (Phytophthora infestans; Phytophthora infestans, 120 h, read-out: EC50 observed): 0.528 µg/mL (≈ 1.14 µM)
4 | Cn1cc(C(=O)Nc2ccccc2Oc2ccc(C(F)(F)F)cc2Cl)c(C(F)F)n1 [Flubeneteram] | 0.1221 (≈ 0.274 µM) |  | 
5 | Cn1cc(C(=O)Nc2ccccc2-c2cc(F)c(F)c(F)c2)c(C(F)F)n1 [Fluxapyroxad] |  | 27.50 | Observed % control (O) (Venturia inaequalis; Fluxapyroxad 90 g/ha, mixture 350 + 90 g/ha): 43.80%
6 | Cn1nnnc1/C(=N\OCc1cccc(NC(=O)OC(C)(C)C)n1)c1ccccc1 [Picarbutrazox] |  |  | EC50 observed (Phytophthora infestans; single active ingredient, OD 590 nm after 5 days at 19° C.): 0.0026 µg/mL (≈ 0.00635 µM)
